We go through one compound from patent US10940156B2, “Neuroactive steroids, compositions, and uses thereof” (Sage Therapeutics, Inc., priority 2016, dated 2021).

The subject of data set [1] is healthy volunteers. The data set is described as follows: Phase I multiple ascending dose (MAD) study: MOAA/S sedation. Format: in vivo, human. The source says:
Example 3. Phase I, Double-Blind, Placebo-Controlled, Multiple Ascending Dose Study to Determine Safety, Tolerability, Pharmacokinetics and Pharmacodynamics of Compound 9 Oral Solution in Healthy Volunteers
This study comprises a double blind, placebo-controlled multiple ascending dose (MAD) study followed by an open-label drug-drug interaction study (DDI) without placebo in healthy, adult volunteers. Four cohorts of 12 subjects each will be recruited for a total of 48 subjects. Subjects in Cohorts 1, 2, and 3 will participate in the multiple-ascending-dose (MAD) part of the study, and subjects in Cohort 4 will participate in the drug-drug-interaction (DDI) part of the study.
The objective of the MAD part of the study is to determine the safety, tolerability, pharmacokinetics (PK), and pharmacodynamic (PD) profile of seven days of dosing with Compound 9 Oral Solution (henceforth referred to as Compound 9).
The MOAA/S allows exploration of deeper sedation states than the SSS. All time points are relative to the time of dosing. If the planned time point is between the hours of 22:00 h and 08:00 h each day or if the subject has been discharged before the +72 hour time point, the assessment need not be conducted at that time point. If a subject is difficult to awaken, an additional MOAA/S assessment may be performed at the discretion of the PI. Any MOAA score of 3 or less must be repeated. […]

The subject of data set [2] is seizures arising from chemoconvulsants, proconvulsant stimuli, and genetic predisposition. The data set is described as follows: preclinical anticonvulsant models. The following applies: oral. Format: in vivo, rodents. The method, then: FIGS. 3A and 3B depict exemplary preclinical anticonvulsant efficacy in rodents.
(§1) The compound was assessed in 14-day rat and dog toxicology studies with daily administration of Compound 9 as a solution in HPBCD in dogs and Labrasol® in rats.

Data set [3] can be described thus: toxicology and safety pharmacology studies across species. Format: in vivo. The method, then:
as §1
Expected risks are those identified during the toxicology and safety pharmacology studies for Compound 9 and clinical study Example 2. […] This will be monitored in the clinical study using two scales, one designed to monitor “sleepiness” (Stanford Sleepiness Scale) and one to monitor deeper sedation (Modified Observer's Assessment of Alertness/Sedation).

The test system of data set [4] is healthy volunteers. The data set is described as follows: Phase I single ascending dose (SAD) study: MOAA/S sedation and adverse events. In kind it is in vivo, human. From the text: Example 2. A Phase I, Double-Blind, Placebo-Controlled, Single Ascending Dose Study to Determine the Maximum Tolerated Dose (MTD), Pharmacokinetics and Pharmacodynamics of Compound 9 Oral Solution in Healthy Volunteers and the Safety, Tolerability, and Pharmacokinetics of Compound 9 in Subjects with Essential Tremor
This four-part study will assess the effects of a single dose of Compound 9. The initial part of the study is a double-blind, placebo-controlled single ascending dose (SAD) design in healthy, adult volunteers with the objective of identifying the maximum tolerated dose (MTD) and pharmacokinetic (PK) profiles of Compound 9 Oral Solution. Escalation to the next dose will be undertaken only after safety and PK data have been reviewed by the Safety Review Committee (SRC) and agreement reached that it is safe to increase the dose. The SRC will not receive any unblinded PK data unless it is agreed upon by the SRC to unblind a subject and/or cohort based on the completed safety review.
In each of the SAD cohorts, subjects will be randomly assigned to receive either Compound 9 (six subjects) or placebo (two subjects) in a blinded manner. Cohort 1 will receive Dose 1, Cohort 2 will receive Dose 2, and so on. With the exception of the Food cohort, study drug will be administered in a fasting state (no food and only water for the previous 12 hours) and a standard Phase 1 unit diet will be administered beginning approximately four to five hours after dosing. […]
The MOAA/S allows exploration of deeper sedation states than the SSS. […] If a MOAA/S score of 3 or less (≤3) is observed, confirm the score by waiting approximately 10 minutes and readministering the MOAA/S assessment. […]

The nature of data set [5]: 14-day dog toxicology study. In kind it is in vivo. The following applies: dog, in vivo; dogs; 14-day daily administration, solution in HPBCD. The method, then:
as §1
(§2) The NOAEL in rats was 3 mg/kg (females) and 22.5 mg/kg (males), and was 2.5 mg/kg in dogs. […] A single observation of mortality occurred in one female rat at the high dose in a toxicokinetic study which was suspected to have been related to exaggerated pharmacology.

Data set [6] deals with dogs. The data set is described as follows: 14-day dog toxicology study. Format: in vivo. The method, then: as §1, §2
Data set [7] is described as follows: 14-day rat toxicology study. Format: in vivo. The following applies: for NOAEL at 14 days: in vivo, 14-day daily administration, solution in Labrasol. The method, then: as §1, §2
The subject of data set [8] is rats. The data set can be described thus: 14-day rat toxicology study. In kind it is in vivo. The method, then:
as §1, §2

The mark [9] stands for this setting: male and female rats, non-adverse, reversible, without microscopic correlates.

Broadly, the NOAEL is the highest tested level that showed no adverse finding. As usually defined, the AUC is the area under the concentration-time curve, a measure of exposure. Broadly, the Cmax is the peak of the concentration-time curve. Regarding `C[C@@]1(O)CC[C@H]2[C@H](CC[C@@H]3[C@@H]2CC[C@]2(C)[C@@H](C(=O)Cn4cc(C#N)cn4)CC[C@@H]32)C1` [Compound 9], in data set [1] (35 mg group, all at 1 hour post-dose), the “subjects with MOAA/S scores of 1 or 2 (deep sedation)” value is listed as “two”. Further, the “mean MOAA/S” value in data set [1] (by 4 hours post-dose) is recorded as “approached baseline values”. Also, the anticonvulsant activity entry in data set [2] is “orally active in preclinical anticonvulsant models, and suppressed seizures”. For the same compound, the “most common drug-related effect” value in data set [3] (across species, studies and doses) is “dose-related sedation”. Besides, the “manifestations of exaggerated pharmacology” value in data set [3] (nonclinical studies) was “sedation and ataxia”. Also, the “subjects with MOAA/S ≤2” value in data set [4] (55 mg single dose, stopping criteria not met) was found to be 2 subjects; in data set [4] (66 mg single dose, stopping criteria met), 2 subjects. Besides, the “adverse events possibly or probably related to the study drug” value in data set [4] (five SAD cohorts dosed, oral solution, study ongoing) was “mild drowsiness, mild confusion, somnolence, headache, orthostatic heart rate increase, aloofness, anxiety, sore throat and mild abdominal discomfort”. For the same compound, the NOAEL at 14 days in data set [5] amounted to 2.5 mg/kg; in data set [7] (rat, female rats), 3 mg/kg; in data set [7] (rat, male rats) it was 22.5 mg/kg. Moreover, the “adverse effects in main toxicology study” value in data set [6] and in data set [8] (rats) was “no adverse effects” throughout. Also, the core body temperature entry in data set [6] is “transient decreases in core body temperature”. In addition, the heart rate entry in data set [6] is “transient increases in heart rate”. In data set [6] (well-documented vehicle effect), the renal microscopic finding result was “minimal renal tubular vacuolation”. Besides, the AUC at 14 day in data set [7] (plasma, 22.5 mg/kg, male rat 14-day toxicology, read-out: AUC at lowest NOAEL exposure in toxicology studies) amounted to 5050 ng·h/mL. For the same compound, the peak concentration (Cmax) in data set [7] (rat, plasma, 3 mg/kg, female rats, Day 14, read-out: estimated human Cmax based on the lowest NOAEL Day 14 Cmax in female rats) is 400 ng/mL. Further, in data set [8] (female rat, high dose, toxicokinetic study, suspected related to exaggerated pharmacology), the mortality entry is “one”. Besides, the “increases in AST/ALT” value in data set [8] (high dose male and female rats) is recorded as less than 2 fold. The microscopic liver finding result in data set [8] (high dose male and female rats) is reported as “increased incidence of minimal hepatocellular vacuolation”. The APTT entry in data set [8] (setting [9]) is recorded as “slight prolongation of APTT”. The “urine pH” value in data set [8] (setting [9]) was “slight increase in urine pH”.
